Test results: patent publication EP3212201B1, “NUCLEOSIDE KINASE INHIBITORS” (BCI Pharma, priority 2014, dated 2016)

Experiments:
Assay in all cases: FRET-based coupled-enzyme protein kinase inhibition assay
Type in all cases: biochemical
Conditions in all cases: compound at 10 µM, 1% DMSO
IKBKB (IKK beta) = target: T1, IKBKB (IKK beta) (Homo sapiens, UniProt O14920)
T1 sequence (O14920 1-756): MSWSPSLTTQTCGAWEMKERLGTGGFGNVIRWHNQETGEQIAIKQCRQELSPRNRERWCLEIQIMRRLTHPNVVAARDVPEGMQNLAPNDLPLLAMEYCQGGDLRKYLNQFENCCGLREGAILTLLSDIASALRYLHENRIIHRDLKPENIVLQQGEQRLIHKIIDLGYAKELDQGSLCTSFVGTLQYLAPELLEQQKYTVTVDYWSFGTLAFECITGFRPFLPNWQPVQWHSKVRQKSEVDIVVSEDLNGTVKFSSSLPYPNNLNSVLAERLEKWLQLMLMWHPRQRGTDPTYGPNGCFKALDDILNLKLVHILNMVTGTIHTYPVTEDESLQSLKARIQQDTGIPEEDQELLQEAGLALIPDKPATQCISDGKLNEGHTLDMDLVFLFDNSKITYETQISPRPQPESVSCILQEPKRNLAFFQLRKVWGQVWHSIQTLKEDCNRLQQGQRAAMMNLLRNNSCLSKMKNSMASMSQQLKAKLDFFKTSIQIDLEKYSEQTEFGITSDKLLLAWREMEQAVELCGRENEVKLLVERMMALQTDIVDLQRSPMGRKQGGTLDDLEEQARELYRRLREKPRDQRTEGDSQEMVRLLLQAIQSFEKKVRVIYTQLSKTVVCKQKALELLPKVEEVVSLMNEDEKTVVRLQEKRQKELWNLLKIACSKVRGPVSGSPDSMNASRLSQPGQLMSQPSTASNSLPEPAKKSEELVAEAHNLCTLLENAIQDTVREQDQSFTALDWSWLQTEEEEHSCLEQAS
How it was run: (§1)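 Inhibition was quantified ratiometrically, as coumarin over fluorescein emission following 400 nm excitation, on a doubly labeled peptide whose cleavage by development reagent requires it to remain unphosphorylated. Kinase reactions ran 60 min at room temperature with ATP at apparent Km.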

CSNK1G2 (CK1 gamma 2) = CSNK1G2 (CK1 gamma 2) (Homo sapiens, UniProt P78368)
Chain of CSNK1G2 (CK1 gamma 2) (P78368 whole entry, species assumed): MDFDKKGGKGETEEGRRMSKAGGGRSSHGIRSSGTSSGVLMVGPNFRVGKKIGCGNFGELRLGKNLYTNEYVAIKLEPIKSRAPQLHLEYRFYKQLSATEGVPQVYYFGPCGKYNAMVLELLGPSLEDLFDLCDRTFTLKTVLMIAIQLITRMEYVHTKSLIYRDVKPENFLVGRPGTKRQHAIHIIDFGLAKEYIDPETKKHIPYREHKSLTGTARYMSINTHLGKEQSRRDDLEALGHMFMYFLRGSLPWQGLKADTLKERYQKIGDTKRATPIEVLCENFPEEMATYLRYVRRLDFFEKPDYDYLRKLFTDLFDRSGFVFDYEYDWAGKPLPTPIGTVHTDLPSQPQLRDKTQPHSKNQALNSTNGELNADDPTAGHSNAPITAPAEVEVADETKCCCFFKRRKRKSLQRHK
How it was run: as §1

IRAK4 = target: T2, IRAK4 (Homo sapiens, UniProt Q9NWZ3)
T2 sequence (Q9NWZ3 1-460): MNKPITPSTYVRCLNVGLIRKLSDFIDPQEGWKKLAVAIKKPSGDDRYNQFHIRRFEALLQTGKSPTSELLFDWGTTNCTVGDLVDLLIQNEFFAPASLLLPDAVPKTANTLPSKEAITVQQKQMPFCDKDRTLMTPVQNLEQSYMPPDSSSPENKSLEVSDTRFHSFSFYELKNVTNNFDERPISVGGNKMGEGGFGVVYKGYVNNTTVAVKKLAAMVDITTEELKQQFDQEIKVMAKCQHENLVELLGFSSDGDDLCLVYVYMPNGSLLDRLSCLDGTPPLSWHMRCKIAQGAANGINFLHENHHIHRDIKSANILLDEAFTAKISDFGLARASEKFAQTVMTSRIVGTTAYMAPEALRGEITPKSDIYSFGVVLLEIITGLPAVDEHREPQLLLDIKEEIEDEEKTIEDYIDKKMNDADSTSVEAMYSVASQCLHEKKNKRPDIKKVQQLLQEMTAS
How it was run: as §1

AMPK A1/B1/G1 = AMPK A1/B1/G1 (Homo sapiens, UniProt Q13131)
Chain of AMPK A1/B1/G1 (Q13131 whole entry): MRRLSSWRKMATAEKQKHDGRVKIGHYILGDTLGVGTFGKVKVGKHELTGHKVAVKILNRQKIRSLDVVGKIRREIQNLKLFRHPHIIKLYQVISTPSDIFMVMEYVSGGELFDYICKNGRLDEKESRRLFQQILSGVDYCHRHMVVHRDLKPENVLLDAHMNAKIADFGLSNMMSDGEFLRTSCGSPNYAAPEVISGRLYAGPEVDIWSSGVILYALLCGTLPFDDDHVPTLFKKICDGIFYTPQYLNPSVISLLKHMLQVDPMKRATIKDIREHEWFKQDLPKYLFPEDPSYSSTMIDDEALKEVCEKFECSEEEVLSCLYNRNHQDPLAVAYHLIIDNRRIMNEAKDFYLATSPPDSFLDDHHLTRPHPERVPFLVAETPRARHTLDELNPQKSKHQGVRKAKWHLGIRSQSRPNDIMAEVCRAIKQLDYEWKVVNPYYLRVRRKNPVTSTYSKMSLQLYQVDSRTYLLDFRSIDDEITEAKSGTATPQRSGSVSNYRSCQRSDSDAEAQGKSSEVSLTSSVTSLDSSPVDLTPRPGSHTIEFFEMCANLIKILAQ
Chain of AMPK A1/B1/G1 (Q9Y478 whole entry partner): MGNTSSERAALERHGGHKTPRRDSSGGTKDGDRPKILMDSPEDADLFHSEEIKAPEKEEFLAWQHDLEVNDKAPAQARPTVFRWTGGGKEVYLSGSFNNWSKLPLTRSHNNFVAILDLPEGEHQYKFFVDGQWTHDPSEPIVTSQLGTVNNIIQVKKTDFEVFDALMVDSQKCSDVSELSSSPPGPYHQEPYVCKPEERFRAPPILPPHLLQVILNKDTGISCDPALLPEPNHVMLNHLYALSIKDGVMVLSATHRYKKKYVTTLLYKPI
Chain of AMPK A1/B1/G1 (P54619 whole entry partner): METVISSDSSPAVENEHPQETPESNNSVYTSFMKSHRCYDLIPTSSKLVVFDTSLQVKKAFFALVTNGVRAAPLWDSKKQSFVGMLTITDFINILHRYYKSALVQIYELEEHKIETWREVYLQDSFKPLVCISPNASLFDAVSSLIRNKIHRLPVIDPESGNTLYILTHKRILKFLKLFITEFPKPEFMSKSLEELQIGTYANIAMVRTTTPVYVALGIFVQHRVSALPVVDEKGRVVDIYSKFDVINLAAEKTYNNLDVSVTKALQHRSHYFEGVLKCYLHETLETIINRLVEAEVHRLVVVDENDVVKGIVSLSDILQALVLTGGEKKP
How it was run: as §1

PRKACA (PKA) = PRKACA (PKA) (Homo sapiens, UniProt P17612)
How it was run: as §1

CSNK2A1 (CK2 alpha 1) = CSNK2A1 (CK2 alpha 1) (Homo sapiens, UniProt P68400)
Chain of CSNK2A1 (CK2 alpha 1) (P68400 whole entry, species assumed): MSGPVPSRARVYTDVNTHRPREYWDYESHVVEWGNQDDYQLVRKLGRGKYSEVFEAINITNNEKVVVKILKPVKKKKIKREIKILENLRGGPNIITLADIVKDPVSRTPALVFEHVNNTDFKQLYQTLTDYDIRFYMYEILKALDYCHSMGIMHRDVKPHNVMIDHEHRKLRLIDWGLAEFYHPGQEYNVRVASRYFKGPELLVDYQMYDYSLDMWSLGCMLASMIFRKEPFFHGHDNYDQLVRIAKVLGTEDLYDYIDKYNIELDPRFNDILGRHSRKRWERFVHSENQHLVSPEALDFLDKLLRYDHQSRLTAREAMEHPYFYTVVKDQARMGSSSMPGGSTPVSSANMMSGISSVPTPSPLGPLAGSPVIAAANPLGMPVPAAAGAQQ
How it was run: as §1

FGFR1 = FGFR1 (Homo sapiens, UniProt P11362)
Chain of FGFR1 (P11362 22-822, species assumed): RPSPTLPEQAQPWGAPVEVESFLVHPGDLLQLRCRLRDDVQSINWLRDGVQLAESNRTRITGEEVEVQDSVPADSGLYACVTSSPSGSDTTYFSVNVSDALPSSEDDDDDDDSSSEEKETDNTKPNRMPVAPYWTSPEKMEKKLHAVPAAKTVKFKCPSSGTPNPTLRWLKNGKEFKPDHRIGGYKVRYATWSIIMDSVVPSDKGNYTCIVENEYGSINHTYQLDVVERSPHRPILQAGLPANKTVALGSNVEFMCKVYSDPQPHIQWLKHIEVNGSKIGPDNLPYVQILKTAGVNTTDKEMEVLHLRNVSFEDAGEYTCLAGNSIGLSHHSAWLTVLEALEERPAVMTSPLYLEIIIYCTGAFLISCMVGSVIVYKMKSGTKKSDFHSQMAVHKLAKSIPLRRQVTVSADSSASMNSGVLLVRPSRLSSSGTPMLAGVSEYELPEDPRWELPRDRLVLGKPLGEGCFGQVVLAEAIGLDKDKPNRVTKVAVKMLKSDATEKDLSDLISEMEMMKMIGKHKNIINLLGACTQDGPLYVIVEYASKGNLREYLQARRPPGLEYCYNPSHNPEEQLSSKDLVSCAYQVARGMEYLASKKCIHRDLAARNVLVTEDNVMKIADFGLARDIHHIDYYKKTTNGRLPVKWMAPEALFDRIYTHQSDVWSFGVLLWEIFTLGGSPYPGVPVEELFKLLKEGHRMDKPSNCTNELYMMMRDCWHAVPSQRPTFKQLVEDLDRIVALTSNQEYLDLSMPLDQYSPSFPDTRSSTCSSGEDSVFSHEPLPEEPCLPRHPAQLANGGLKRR
How it was run: as §1

| inhibition at 10 µM (IKBKB (IKK beta)) [%] | inhibition at 10 µM (CSNK1G2 (CK1 gamma 2)) [%] | inhibition at 10 µM (IRAK4) [%] | inhibition at 10 µM (AMPK A1/B1/G1) [%] | inhibition at 10 µM (PRKACA (PKA)) [%] | inhibition at 10 µM (CSNK2A1 (CK2 alpha 1)) [%] | inhibition at 10 µM (FGFR1) [%] | SMILES |
| --- | --- | --- | --- | --- | --- | --- | --- |
| -10 | -2 | -2 | 17 | 21 | -5 | 21 | Nc1ncnc2c1ncn2[C@@H]1O[C@H](COC(=O)NCCCc2nc3ccccc3[nH]2)[C@@H](O)[C@H]1O [Compound C1] |
| -6 | 7 | 3 | 17 | 20 | 8 | 6 | C[C@@H](NC(=O)OC[C@H]1O[C@@H](n2cnc3c(N)ncnc32)[C@H](O)[C@@H]1O)c1ccc(Cl)cc1 [Compound C4] |
| -6 | 13 | -8 | 17 | 43 | 5 | 26 | Nc1ncnc2c1ncn2[C@@H]1O[C@H](COC(=O)NC[C@H](O)CO)[C@@H](O)[C@H]1O [Compound C8] |
| -8 | -5 | -2 | 4 | -6 | 5 | 3 | Nc1ncnc2c1ncn2[C@@H]1O[C@H](COC(=O)N2CCC[C@H]2CO)[C@@H](O)[C@H]1O [Compound C9] |
| -11 | 7 | 6 | 11 | 10 | 2 | 20 | Nc1ncnc2c1ncn2[C@@H]1O[C@H](COC(=O)N[C@@H]2CCN(Cc3ccccc3)C2)[C@@H](O)[C@H]1O [Compound C10] |
| -7 | 11 | 13 | 6 | -1 | 3 | 5 | Nc1ncnc2c1ncn2[C@@H]1O[C@H](COC(=O)N2CCN(Cc3ccccc3)CC2CO)[C@@H](O)[C@H]1O (stereo partly shown) [Compound C13] |
| -6 | 6 | -3 | 5 | 4 | 5 | 6 | CC(C)N1CCC(NC(=O)OC[C@H]2O[C@@H](n3cnc4c(N)ncnc43)[C@H](O)[C@@H]2O)CC1 [Compound C19] |
| -13 | 2 | 1 | 4 | 0 | 2 | 0 | Nc1ncnc2c1ncn2[C@@H]1O[C@H](COC(=O)NCCN2CCCC2=O)[C@@H](O)[C@H]1O [Compound C22] |
| -8 | 0 | 2 | 3 | -1 | 3 | 9 | Nc1ncnc2c1ncn2[C@@H]1O[C@H](COC(=O)N2CCN(CCc3ccccc3)CC2)[C@@H](O)[C@H]1O [Compound C26] |
| -3 | -4 | 7 | 4 | 3 | 5 | 9 | CN1CCN(CCNC(=O)OC[C@H]2O[C@@H](n3cnc4c(N)ncnc43)[C@H](O)[C@@H]2O)CC1 [Compound C46] |
| -11 | 10 | -2 | 14 | 1 | -5 | 13 | Nc1ncnc2c1ncn2[C@@H]1O[C@H](COC(=O)N2CCC(Cc3ccc(F)cc3)C2)[C@@H](O)[C@H]1O (stereo partly shown) [Compound C66] |
| -12 | 0 | 0 | 8 | -4 | 4 | 1 | N#CCCN1CCN(C(=O)OC[C@H]2O[C@@H](n3cnc4c(N)ncnc43)[C@H](O)[C@@H]2O)CC1 [Compound C70] |
| -10 | 0 | -1 | 4 | -2 | 7 | 4 | CN(C)CCNC(=O)OC[C@H]1O[C@@H](n2cnc3c(N)ncnc32)[C@H](O)[C@@H]1O [Compound C85] |
| -10 | 0 | -5 | 2 | -1 | 8 | 16 | Nc1ncnc2c1ncn2[C@@H]1O[C@H](COC(=O)N2CCN(C(=O)N3CCOCC3)CC2)[C@@H](O)[C@H]1O [Compound C89] |
| -8 | 15 | -17 | 9 | -2 | 2 | 9 | CS(=O)(=O)N1CC2(CCN(C(=O)OC[C@H]3O[C@@H](n4cnc5c(N)ncnc54)[C@H](O)[C@@H]3O)CC2)c2ccccc21 [Compound C98] |
| -9 | -1 | 0 | 4 | -3 | 5 | 0 | Nc1ncnc2c1ncn2[C@@H]1O[C@H](COC(=O)N2CCS(=O)(=O)CC2)[C@@H](O)[C@H]1O [Compound C100] |
